According to patent US20230071283A1, “COMPOSITIONS AND METHODS FOR SELECTIVE PROTEIN EXPRESSION” (Novartis AG, priority 2017, published 2023):
Entries after “also recorded” stand apart in the source; their conditions may differ.

How the values were obtained:
[1] = target: T1, ERαFD furin degron domain fused to an anti-CD19 scFv CAR (Homo sapiens, UniProt P03372, G521R/L384M/M421G/N519S/T371A/Y537S); test: CAR expression by FACS in Jurkat T cells transduced with ERαFD furin degron-anti-CD19 scFv CAR; type: cell-based; details: 1 μM, 24 hours
T1 construct: signal peptide (CD8 leader) followed by Arg-Ser linker (N); furin cleavage site (C); anti-CD19 scFv CAR (CD8 hinge, 4-1BB, CD3zeta) (C); expressed in transfected cells; host or cells: Jurkat T cells, lentiviral transduction
T1 sequence (P03372 305-549 T371A/L384M/M421G/N519S/G521R/Y537S): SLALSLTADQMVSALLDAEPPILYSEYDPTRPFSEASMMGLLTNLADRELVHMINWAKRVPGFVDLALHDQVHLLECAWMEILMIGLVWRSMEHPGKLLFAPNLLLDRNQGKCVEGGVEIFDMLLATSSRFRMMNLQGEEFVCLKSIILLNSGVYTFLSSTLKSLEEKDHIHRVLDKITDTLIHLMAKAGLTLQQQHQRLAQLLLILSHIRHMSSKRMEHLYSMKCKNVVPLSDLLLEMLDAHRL

[2] = tested on: universal sCAR T cells; test: Depletion of universal sCAR T cells by AP1903 in BT mice (qPCR, peripheral blood); type: in vivo; details: 4 weeks after AP1903 treatment (3 daily injections with 10 mg/kg)
Procedure: FIG. 44 is a schematic timeline of the experimental design of the in vivo experiment of the present invention. Using BT (bone marrow, liver, and thymus) mice for assessment of universal sCAR function in a non-oncology mouse model. Human fetal bone marrow and thymus were implanted into NSG mice on day −91. Validation of engraftment was done by flow cytometry on day −27. Universal T cells expressing CD19 sCAR T cells were injected on day 0, B cell depletion was assessed on day 10 and mice were treated with AP1903 (3 daily injections with 10 mg/kg). sCAR survival was assessed with qPCR.
A qPCR from peripheral blood WPRE copy number was performed with a gDNA, 4 weeks after AP1903 treatment.

[3] = tested on: CD19 sCAR T cells; test: In vivo depletion of CD19 sCAR T cells by AP1903 in Nalm6-injected mice
Procedure: FIG. 40 is a series of flow cytometry graphs depicting that the suicide activation results in pheripheral depletion of the suicide CAR T cells. Mice were injected with Nalm6 cells and after 5 days were treated with 19 s CAR T cells. CD19s CAR T cells were sorted before injection based on scFV expression. Flow plots show peripheral T cells (CD3+, CD45+) on day 8 and day 26. CD19 sCAR T cells were depleted on day 10 by injection of AP1903 (10 mg/kg).
The quantification of T cells was done from several mice. Mice were treated with AP1903 on day 10 to deplete sCAR T cells.

[4] = tested on: CD19 sCAR T cells; test: Elimination of CD19 sCAR T cells by AP20187 (live/dead-violet dye, flow cytometry); type: cell-based, human; details: 16 hours at 37° C.
Procedure: (§1) CAR T cells were incubated in the presence of the indicated concentrations of AP20187 for 16 hours at 37° C. Dead cells were detected with live/dead-violet dye and quantified by flow cytometry. Only T cells that expressed the inducible caspase were eliminated (FMC63 iC9 or CD19 sCAR, as well as iC9 control CAR).
(§2) Elimination of CD19 CAR T cells. CD19 sCAR T cells were incubated in the presence of the indicated concentrations AP20187 for 16 hours at 37° C. Dead cells were detected with live/dead-violet dye and quantified by flow cytometry.

[5] = tested on: nontransduced T cells; test: AP20187 treatment of T cells not expressing inducible caspase-9; type: cell-based, human; details: 16 hours at 37° C.
Procedure: as §1, §2

[6] = tested on: CD20 on-CAR; test: CD20 on-CAR surface expression (MFI, flow cytometry) versus Shield-1 concentration; type: cell-based
From the text: FIG. 36 is series of graphs illustrating the modulation of CAR surface expression with FKBP ligand Shield-1. CD20 on-CAR T cells were stained for CAR expression and the mean fluorescence intensity (MFI, assessed by flow cytometry) of the CAR signal was plotted against the Shield-1 concentration. […] Absence of Shield-1 results in ˜60% reduction of CD20 on-CAR expression (bottom graph).

[7] = target: T2, FKBPFD furin degron domain fused to an anti-CD19 scFv CAR (Homo sapiens, UniProt P62942, F37V); test: CAR expression by FACS in Jurkat T cells transduced with FKBPFD furin degron-anti-CD19 scFv CAR; type: cell-based; details: 1 μM Shield1
T2 construct: signal peptide (CD8 leader) (N); furin cleavage site (C); anti-CD19 scFv CAR (CD8 hinge, 4-1BB, CD3zeta) (C); expressed in transfected cells; host or cells: Jurkat T cells, lentiviral transduction
Procedure: The scFvs used in the CAR constructs that were assessed in Examples 3 were independently synthesized based on an anti-CD19 scFv sequence described above. […] The proteins used in the furin-degron constructs that were assessed in Examples 4-5 were independently synthesized based on publicly available sequence data.
Jurkat cell lines were transduced by spinoculation with lentiviral supernatant from 293T cells transfected with pELPS using the protein-furin domain regulated plasmid DNA.
Trimethoprim (TMP) was resuspended in DMSO. In all instances where concentrations not indicated, compounds were added for 24 hours in total prior to analysis by flow cytometry.
FKBPFD transduced cells treated with 1 μM Shield1. ERαFD transduced cells treated with 1 μM Bazedoxifene. DHFRFD transduced cells treated with 1 mM TMP. […] Black=UTD; Gray=construct, no compound; White=construct, compound.

[8] = tested on: CD19rev CAR T cells; test: Titration of Shield-1 in CD19rev CAR T cells (remaining CAR+ cells, flow cytometry); type: cell-based; details: different doses of Shield-1 for 24 h
Procedure: FIG. 37 is a series of flow cytometry graphs depicting the titration of Shield-1 in CD19rev CAR. CD19rev CAR T cells (˜38% transduced) were incubated in different doses of Shield-1 for 24 h to assess dose-dependent caspase-9 acitvation. The remaining CAR+ cells were quantified by flow cytometry.

[9] = tested on: NALM6, a CD19+ target cell line; test: Cytokine secretion in co-culture with target cells; details: presence or absence of bazedoxifene; 20 hours; versus parental CAR19
[10] = tested on: CD19+ NALM6 cells; test: Proliferation assay in co-culture with target cells (FACS, counting beads); details: presence or absence of bazedoxifene; 4 days; versus parental CAR19

T2 sequence (P62942 with tags, fused parts or gaps F37V): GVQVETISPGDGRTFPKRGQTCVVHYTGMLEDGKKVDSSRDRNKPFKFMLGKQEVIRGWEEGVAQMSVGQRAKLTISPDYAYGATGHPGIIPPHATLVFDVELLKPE

Oc1ccc2c(c1)CC[C@H](c1ccccc1)[C@@H]2c1ccc(OCCN2CCCC2)cc1 [Lasofoxifene]
CAR 19 expression [1]: can induce CAR 19 expression

CC[C@H](C(=O)N1CCCC[C@H]1C(=O)O[C@H](CCc1ccc(OC)c(OC)c1)c1cccc(OCC(=O)NCCNC(=O)COc2cccc([C@@H](CCc3ccc(OC)c(OC)c3)OC(=O)[C@@H]3CCCCN3C(=O)[C@@H](CC)c3cc(OC)c(OC)c(OC)c3)c2)c1)c1cc(OC)c(OC)c(OC)c1 [AP1903]
sCAR T cells in peripheral blood (qPCR, WPRE copy number) [2]: can be depleted with AP1903 treatment; also recorded: near-total sCAR absence in 2/3 mice
T cells in spleen (human CD3 staining) ([3]; >2 weeks after AP1903 treatment): T cells are not detectable
Peripheral T cells (CD3+, CD45+) ([3]; AP1903 10 mg/kg on day 10, versus vehicle, 10 mg/kg): T cells are hardly detectable after suicide activation; also recorded: the T cell percentages drop in the AP1903 group
sCAR T cells in spleen (quantitative PCR) ([3]; AP1903 versus vehicle treated mice): near-total sCAR absence in most mice

CC[C@H](C(=O)N1CCCC[C@H]1C(=O)O[C@H](CCc1ccc(OC)c(OC)c1)c1cccc(OCC(=O)NCC(CNC(=O)COc2cccc([C@@H](CCc3ccc(OC)c(OC)c3)OC(=O)[C@@H]3CCCCN3C(=O)[C@@H](CC)c3cc(OC)c(OC)c(OC)c3)c2)CN(C)C)c1)c1cc(OC)c(OC)c(OC)c1 [AP20187]
Cell death after AP20187 [4]: specifically killed; also recorded: specific and robust elimination of CD19 sCAR T cells
Cell death after AP20187 [5]: no cell death

CC[C@H](C(=O)N1CCCC[C@H]1C(=O)O[C@H](CCc1ccc(OC)c(OC)c1)c1cccc(OCCN2CCOCC2)c1)c1cc(OC)c(OC)c(OC)c1 [Shield1, Shield-1]
CAR expression (MFI) versus Shield-1 concentration ([6]; CD20 on-CAR T cells): dose-dependent increase in CAR expression
reduction of CD20 on-CAR expression ([6]; absence of Shield-1): ~60%
Expression of the anti-CD19 scFv [7]: inducible in the presence of compound; also recorded: inducible by the stabilizing compound
Kinetics of CAR expression following compound addition [7]: occurs rapidly following compound addition and is stable throughout the period of compound treatment
caspase-9 activation and apoptosis (proportion of CAR+ cells) [8]: lower doses of Shield-1 result in higher caspase-9 activation and increased apoptosis

B1: construct #106: ERα furin degron (ERmut1) fused to anti-CD19 scFV CAR; furin site GTGAEDPRPSRKRRSLGDVG (SEQ ID NO: 125) (protein)
chain: RSSLALSLTADQMVSALLDAEPPILYSEYDPTRPFSEASMMGLLTNLADRELVHMINWAKRVPGFVDLALHDQVHLLECAWMEILMIGLVWRSMEHPGKLLFAPNLLLDRNQGKCVEGGVEIFDMLLATSSRFRMMNLQGEEFVCLKSIILLNSGVYTFLSSTLKSLEEKDHIHRVLDKITDTLIHLMAKAGLTLQQQHQRLAQLLLILSHIRHMSSKRMEHLYSMKCKNVVPLSDLLLEMLDAHRLGTGAEDPRPSRKRRSLGDVGEIVMTQSPATLSLSPGERATLSCRASQDISKYLNWYQQKPGQAPRLLIYHTSRLHSGIPARFSGSGSGTDYTLTISSLQPEDFAVYFCQQGNTLPYTFGQGTKLEIKGGGGSGGGGSGGGGSQVQLQESGPGLVKPSETLSLTCTVSGVSLPDYGVSWIRQPPGKGLEWIGVIWGSETTYYSSSLKSRVTISKDNSKNQVSLKLSSVTAADTAVYYCAKHYYYGGSYAMDYWGQGTLVTVSSTTTPAPRPPTPAPTIASQPLSLRPEACRPAAGGAVHTRGLDFACDIYIWAPLAGTCGVLLLSLVITLYCKRGRKKLLYIFKQPFMRPVQTTQEEDGCSCRFPEEEEGGCELRVKFSRSADAPAYKQGQNQLYNELNLGRREEYDVLDKRRGRDPEMGGKPRRKNPQEGLYNELQKDKMAEAYSEIGMKGERRRGKGHDGLYQGLSTATKDTYDALHMQALPPR
levels of IFNγ [9]: secrete IFNγ in the presence of CD19+ tumor cells, in a manner that is stabilizing compound dose-dependent and is noninferior to the parental CAR construct
Proliferation [10]: proliferate in the presence of CD19+ tumor cells, in a manner that is stabilizing compound-dependent and is noninferior to the parental CAR19 construct
